The values that follow come from US12551578B2, “Compound or salt thereof” (SHIZUOKA PREFECTURAL UNIVERSITY CORPORATION, priority 2019, dated 2026).

Series [1] deals with reactive oxygen species in the brain (right striatum). As to the kind of experiment: PET measurement of probe accumulation in SNP model rats. The series is classed as in vivo, rat. The conditions noted are these: for ratio of radioactivity accumulated amount (SUV) between right striatum (SNP) and left striatum (control): 20 MBq i.v. bolus, 30-45 minutes after administration, FIGS. 2(E) and 2(F). On the procedure:
Accumulation of [^18F]FHM, [^18F]FPHM and [^11C]HM was analyzed using rats in which reactive oxygen species were produced in the brain (right striatum) to which sodium nitroprusside (SNP) has been administered.
While rats were anesthetized with 1.5-2.0% isoflurane (dilution gas:oxygen), 4 μL of a 20 nmol/μL SNP solution (saline) was injected into the right striatum of the rat at a rate of 0.8 μL/min using a Hamilton syringe (26 gauge). 4 μL of a saline was injected into the left striatum in the same method. PET measurement was performed on SNP-administered rats (SNP model rats) 60 minutes after SNP administration.
After transmission measurement was performed for 15 minutes for absorption correction, a bolus of 20 MBq [^18F]FHM, [^18F]FPHM or [^11C]HM was administered from the caudal vein of the rat, and emission measurement was performed for 90 minutes. After PET measurement was completed, the PET accumulation images of the brain 0-15 minutes, 15-30 minutes, 30-45 minutes, 45-60 minutes, 60-75 minutes, and 75-90 minutes after [^18F]FHM, [^18F]FPHM or [^11C]HM was administered were superimposed on the brain CT images. Regions of interest were set on the PET images of the right striatum and the left striatum identified from the X-CT images, and the value normalized according to the body weight of each individual subject and the administered radioactivity amount was used as the amount of [^18F]FHM, […] or […] accumulated at each site (radioactivity accumulated amount (SUV)) (each group, 5 rats).
In addition, as a control, PET measurement was performed on rats in which only a saline was administered to both the right striatum and the left striatum (control rat) in the same method as above.

Series [2] relates to bovine thymus DNA. As to the kind of experiment: DNA intercalation analysis by fluorescence intensity on mixing with DNA. The series is classed as binding. The conditions noted are these: for intercalation into DNA judged from fluorescence intensity: FIG. 4 and Table 1; for Fluorescence intensity ratio (DNA20/DNA0): compound 10 μg/mL in 0.1 M Tris-HCl pH 7.5, DNA 20 μg/mL versus 0 μg/mL. On the procedure: Since the fluorescence intensity was improved due to intercalation of the compound between base pairs of DNA, the fluorescence intensity was measured by mixing DNA and the compound. First, the compounds shown in Table 1 were dissolved in a 0.1 M Tris-HCl buffer solution (pH 7.5) at 10 μg/mL, and bovine thymus DNA was added thereto at 0 μg/mL, 5 μg/mL, 10 μg/mL or 20 μg/mL to prepare measurement samples. Then, the fluorescence intensity of each measurement sample was measured (excitation wavelength 355 to 536 nm, fluorescence wavelength of 420 to 605 nm). In Table 1, the fluorescence intensity ratio is a ratio (DNA20/DNA0) of the fluorescence intensity (DNA20) when the DNA concentration was 20 μg/mL and the fluorescence intensity (DNA0) when the DNA concentration was 0 μg/mL.

Series [3] concerns bovine thymus DNA. As to the kind of experiment: DNA intercalation analysis by shift of absorption wavelength (bathochromic effect). The series is classed as binding. The conditions noted are these: for Absorption wavelength difference: DNA 30 μg/mL versus 0 μg/mL; for intercalation into DNA judged from absorption wavelength shift: Table 2; for DNA0: Absorption wavelength when DNA concentration was 0 μg/mL / DNA30: Absorption wavelength when DNA concentration was 30 μg/mL: compound 10 μg/mL in 0.1 M Tris-HCl, peak top wavelength. Here is the method: In addition, since the absorption spectrum shifted to the long wavelength side due to intercalation of the compound between base pairs of DNA (bathochromic effect), the shift of the absorption wavelength was measured by mixing DNA and the compound. Specifically, the compounds shown in Table 2 were dissolved in a 0.1 M Tris-HCl buffer solution at 10 μg/mL, and bovine thymus DNA was added thereto at 0 μg/mL or 30 μg/mL to prepare measurement samples. Then, the absorption spectrum of each measurement sample was measured, and the absorption wavelength (peak top wavelength) was determined.

Series [4] in a line: Quantum yield and molar absorption coefficient (Table 1). The series is classed as physicochemical.
The subject of series [5] is reactive oxygen species in the brain (right striatum). As to the kind of experiment: Brain fluorescence imaging in SNP model rats. In kind it is in vivo, rat. The conditions noted are these: 5 mg/kg i.v. bolus, brain extracted 1 hour after administration, compared to DHE, FIG. 5. Here is the method:
4 μL of a 20 nmol/μL SNP solution (phosphate buffered saline (PBS) solution) was injected into the right striatum of the rat at a rate of 0.8 μL/min using a Hamilton syringe (26 gauge). 4 μL of PBS was injected into the left striatum in the same method. A bolus of 5 mg/kg DHE or isopropyl reduced component was administered from the caudal vein of the rat 60 minutes after SNP administration for SNP-administered rats (SNP model rats). The brain was extracted 1 hour after administration and a 20 μm-thick frozen section was prepared. Brain fluorescence images were obtained by a scanner type image analysis device (FLA700: excitation wavelength of 532 nm, filter 580 nm).

For the compound `[11CH3]N1c2cc(N)ccc2-c2ccc(N)cc2C1c1ccccc1` (stereo not drawn) [[^11C]HM, reference compound], the “ratio of radioactivity accumulated amount (SUV) between right striatum (SNP) and left striatum (control)” value in series [1] is “about 3 times”.

With `C[n+]1c(-c2ccccc2)c2cc(N)ccc2c2ccc(N)cc21` [Methidium, reference compound], in the series with bovine thymus DNA [2], the “intercalation into DNA judged from fluorescence intensity” value is reported as “intercalation into DNA occurred” and the “Fluorescence intensity ratio (DNA20/DNA0)” value stood at 3.03. In the series on bovine thymus DNA [3], the Absorption wavelength difference is 40 nm, the “intercalation into DNA judged from absorption wavelength shift” value is “intercalation into DNA occurred”, the “DNA0: Absorption wavelength when DNA concentration was 0 μg/mL” value (“DNA0: Absorption wavelength” below) is given as 481 nm and the “DNA30: Absorption wavelength when DNA concentration was 30 μg/mL” value (“DNA30: Absorption wavelength” for short) stood at 521 nm. Further, in series [4], the “ε · ϕ (molar absorption coefficient x quantum yield)” value turned out to be 97.34 and the “ϕ: quantum yield” value is listed as 2.68 10^−3.

`CC(C)Nc1ccc2c(c1)C(c1ccccc1)N(C)c1cc(NC(C)C)ccc1-2` (stereo not drawn) [Isopropyl form]: in the series with bovine thymus DNA [2], the “intercalation into DNA judged from fluorescence intensity” value is “almost no intercalation into DNA occurred” and the “Fluorescence intensity ratio (DNA20/DNA0)” value is 0.996. In the series on bovine thymus DNA [3], the Absorption wavelength difference is listed as 8 nm, the “intercalation into DNA judged from absorption wavelength shift” value is given as “almost no intercalation into DNA occurred”, the “DNA0: Absorption wavelength” value is 517 nm and the “DNA30: Absorption wavelength” value worked out at 525 nm. Moreover, in series [4], the “ε · ϕ (molar absorption coefficient x quantum yield)” value is recorded as 568.8 and the “ϕ: quantum yield” value was 40.6 10^−3.

For `CN1c2cc(NC3CCC3)ccc2-c2ccc(NC3CCC3)cc2C1c1ccccc1` (stereo not drawn) [Cyclobutyl form], in the series on bovine thymus DNA [2], the “intercalation into DNA judged from fluorescence intensity” value is “almost no intercalation into DNA occurred” and the “Fluorescence intensity ratio (DNA20/DNA0)” value stood at 1.62. In addition, in the series with bovine thymus DNA [3], the Absorption wavelength difference turned out to be 18 nm, the “intercalation into DNA judged from absorption wavelength shift” value was “almost no intercalation into DNA occurred”, the “DNA0: Absorption wavelength” value is given as 557 nm and the “DNA30: Absorption wavelength” value came out at 575 nm. Further, in series [4], the “ε · ϕ (molar absorption coefficient x quantum yield)” value worked out at 47.04 and the “ϕ: quantum yield” value is recorded as 3.62 10^−3.

Consider `CC(C)Nc1ccc2c(c1)C(c1ccc(F)cc1)N(C)c1cc(NC(C)C)ccc1-2` (stereo not drawn) [isopropyl reduced component], for which, in series [5], the “accumulation in the right striatum to which SNP has been administered (brain fluorescence images)” value is listed as “a large amount of accumulation in the right striatum”.

With `CN1c2cc(N)ccc2-c2ccc(N)cc2C1c1ccc([18F])cc1` (stereo not drawn) [[^18F]FHM], in series [1], the “ratio of radioactivity accumulated amount (SUV) between right striatum (SNP) and left striatum (control)” value is listed as “about 5 times”. Besides, the “radioactivity accumulated amount in the right striatum, comparison of probes” value in series [1] (FIGS. 2(A) and 2(B)) was “larger in [^18F]FHM than in [^11C]HM”.

Regarding `CC(C)N(c1ccc2c(c1)C(c1ccccc1)N(C)c1cc(N(C(C)C)C(C)C)ccc1-2)C(C)C` (stereo not drawn) [Di-isopropyl form], in the series with bovine thymus DNA [2], the “intercalation into DNA judged from fluorescence intensity” value is reported as “almost no intercalation into DNA occurred” and the “Fluorescence intensity ratio (DNA20/DNA0)” value is 0.759. Further, in the series on bovine thymus DNA [3], the Absorption wavelength difference is 4 nm, the “intercalation into DNA judged from absorption wavelength shift” value is recorded as “almost no intercalation into DNA occurred”, the “DNA0: Absorption wavelength” value was determined as 559 nm and the “DNA30: Absorption wavelength” value was determined as 563 nm. For the same compound, in series [4], the “ε · ϕ (molar absorption coefficient x quantum yield)” value is reported as 118.8 and the “ϕ: quantum yield” value is listed as 8.48 10^−3.
